# From patent publication US20090105278A1, “Selective inhibitors of human corticosteroid syntheses” (Universitat Des Saarlandes, priority 2004, published 2009)
# Structures can show the parent of a compound that is named as a salt.
# Tests used:
# [1] = biological target: T1, human CYP11B2 (Homo sapiens, UniProt P19099); assay: V79 MZh 11B2 cells inhibition test; type: cell-based; set-up: expressed in transfected cells; host or cells: V79 MZh11B2 (Chinese hamster lung fibroblasts); conditions: hamster fibroblasts which express human CYP11B2; deoxycorticosterone substrate 100 nM; read-out: IC50 V79 11B2 hCYP11B2
# T1 sequence (P19099 25-503): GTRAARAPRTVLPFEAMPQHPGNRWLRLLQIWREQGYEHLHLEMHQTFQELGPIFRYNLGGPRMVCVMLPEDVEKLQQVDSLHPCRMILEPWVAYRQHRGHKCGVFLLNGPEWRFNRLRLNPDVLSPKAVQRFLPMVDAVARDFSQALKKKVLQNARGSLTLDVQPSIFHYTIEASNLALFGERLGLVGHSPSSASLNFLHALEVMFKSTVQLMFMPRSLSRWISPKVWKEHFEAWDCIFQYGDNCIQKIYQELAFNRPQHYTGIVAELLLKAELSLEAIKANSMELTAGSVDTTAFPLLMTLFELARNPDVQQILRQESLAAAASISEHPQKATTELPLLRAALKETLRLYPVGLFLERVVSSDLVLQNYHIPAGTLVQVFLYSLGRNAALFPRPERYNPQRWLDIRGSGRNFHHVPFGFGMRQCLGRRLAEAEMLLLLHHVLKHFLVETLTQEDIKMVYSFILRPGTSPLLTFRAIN
# Method: Both cell lines were cultured in DMEM^+ containing […] and the antibiotics penicillin and streptomycin (10%) for protection from bacterial contamination. The cells were passaged every 2-3 days after treatment with trypsin/EDTA because the doubling rate was 1-2 days depending on the number of cells. […] When there was further need, freshly thawed cells were employed.
# Thereafter, the plate was stored at 37° C. and […] in a CO2 incubator. The V79 MZh 11B1 cells were incubated for 120 min, and the V79 MZh 11B2 cells were incubated for 40 min. Controls without inhibitor were treated in the same way. The enzyme reactions were quenched by extracting the supernatant with 500 μl of EtOAc. The samples were centrifuged (10,000 g, 2 min), the solvent was removed and evaporated.
# For V79 MZh11B2, the conversion rate was obtained in accordance with equation 3: […]
# It was calculated by determining the percent inhibition for at least 3 different inhibitor concentrations, which must all be in the linear range of the sigmoidal IC50 curve (log C/% inhibition).
# The calculation was effected by linear regression. The values determined were used only if they formed a straight line with a reliability of […].
# The plate was developed twice with the mobile solvent chloroform:methanol:water (300:20:1). Unlabeled 11-deoxycorticosterone and corticosterone were applied as a reference for the CYP11B1 reaction. For the CYP11B2 reaction, 11-deoxycorticosterone, corticosterone, 18-hydroxycorticosterone and aldosterone were used as references. The detection of the unlabeled references was effected at 260 nm. Subsequently, imaging plates (BAS MS2340, for ^14C samples, Raytest, Straubenhardt, Germany) were exposed to the HPTLC plates for 48 h. The imaging plates were scanned with the phosphoimager system Fuji FLA 3000 (Raytest, Straubenhardt, Germany), and the steroids were quantified.
# [2] = biological target: T2, human CYP17 (Homo sapiens, UniProt P05093); assay: Percent inhibition of CYP17 (membrane fraction of E. coli pJL17/OR); type: biochemical; conditions: E. coli which expresses human CYP17; 5 mg/ml protein; progesterone substrate 2.5 μM; inhibitor 2.5 μM; read-out: % Inhibition human CYP17
# T2 construct: made in house; host or cells: E. coli pJL17/OR (membrane fraction)
# T2 sequence (P05093 1-508): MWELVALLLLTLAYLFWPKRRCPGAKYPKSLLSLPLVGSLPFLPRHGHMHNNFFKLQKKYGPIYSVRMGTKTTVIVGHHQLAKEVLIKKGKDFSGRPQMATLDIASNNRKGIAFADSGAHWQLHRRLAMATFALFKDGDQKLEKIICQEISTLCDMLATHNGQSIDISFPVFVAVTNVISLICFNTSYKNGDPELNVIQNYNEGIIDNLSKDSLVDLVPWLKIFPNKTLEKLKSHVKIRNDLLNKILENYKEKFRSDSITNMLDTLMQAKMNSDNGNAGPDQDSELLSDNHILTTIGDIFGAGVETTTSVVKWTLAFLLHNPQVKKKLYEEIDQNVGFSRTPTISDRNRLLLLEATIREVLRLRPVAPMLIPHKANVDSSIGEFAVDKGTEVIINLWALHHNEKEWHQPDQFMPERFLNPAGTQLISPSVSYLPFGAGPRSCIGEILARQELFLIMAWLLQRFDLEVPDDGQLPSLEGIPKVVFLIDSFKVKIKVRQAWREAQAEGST
# Method in brief: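 Membranes were isolated from E. coli pJL17/OR, which coexpresses human CYP17 with rat NADPH-P450-reductase, by lysozyme treatment, sonication and centrifugation at 50,000 g, then stored at −70° C. Reactions were started with diluted membrane suspension (0.8 to 1 mg of protein per ml), incubated at 37° C for 30 min, extracted with EtOAc and analyzed by HPLC. Inhibition was calculated from reduced substrate conversion versus DMSO controls.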
Compound,IC50 [1],inhibition at 2.5 µM [2]
"Brc1ccc2c(c1)CC/C2=C\c1cccnc1 [Compound 9a, 3-[(E)-(5-Bromo-2,3-dihydro-1H-indane-1-ylidene)methyl]pyridine Hydrochloride]",37.4 nM,16%
"Brc1ccc2c(c1)CC/C2=C/c1cccnc1 [Compound 9b, 3-[(Z)-(5-Bromo-2,3-dihydro-1H-indane-1-ylidene)methyl]pyridine Hydrochloride]",171 nM,24%
"Brc1ccc2c(c1)CC/C2=C\c1ccncc1 [Compound 10a, 4-[(E)-(5-Bromo-2,3-dihydro-1H-indane-1-ylidene)methyl]pyridine Hydrochloride]",2640 nM,24%
"COc1ccc2c(c1)CC/C2=C\c1cccnc1 [Compound 11a, 3-[(E)-(5-Methoxy-2,3-dihydro-1H-indane-1-ylidene)methyl]pyridine Hydrochloride]",34.2 nM,36%
"COc1ccc2c(c1)CC/C2=C/c1cccnc1 [Compound 11b, 3-[(Z)-(5-Methoxy-2,3-dihydro-1H-indane-1-ylidene)methyl]pyridine Hydrochloride]",26.4 nM,49%
"COc1ccc2c(c1)CCC/C2=C\c1cccnc1 [Compound 13a, 3-[(E)-(6-Methoxy-3,4-dihydronaphthalene-1(2H)-ylidene)methyl]pyridine Hydrochloride]",56.6 nM,20%
"COc1ccc2c(c1)CCC/C2=C/c1cccnc1.Cl [Compound 13b, 3-[(Z)-(6-Methoxy-3,4-dihydronaphthalene-1(2H)-ylidene)methyl]pyridine Hydrochloride]",878 nM,17%
"CCOc1ccc2c(c1)CC/C2=C\c1cccnc1 [Compound 19a, 3-[(E)-(5-Ethoxy-2,3-dihydro-1H-indane-1-ylidene)methyl]pyridine Hydrochloride]",79.4 nM,13%
"CCOc1ccc2c(c1)CC/C2=C/c1cccnc1 [Compound 19b, 3-[(Z)-(5-Ethoxy-2,3-dihydro-1H-indane-1-ylidene)methyl]pyridine Hydrochloride]",248 nM,6%
"Cc1cccc2c1CC/C2=C\c1cccnc1 [Compound 23a, 3-[(E)-(4-Methyl-2,3-dihydro-1H-indane-1-ylidene)methyl]pyridine Hydrochloride]",108 nM,40%
"Fc1cccc2c1CC/C2=C\c1cccnc1 [Compound 24a, 3-[(E)-(4-Fluoro-2,3-dihydro-1H-indane-1-ylidene)methyl]pyridine Hydrochloride]",20.9 nM,42%
"Clc1cccc2c1CC/C2=C\c1cccnc1 [Compound 25a, 3-[(E)-(4-Chloro-2,3-dihydro-1H-indane-1-ylidene)methyl]pyridine Hydrochloride]",8.7 nM,14%
"Clc1cccc2c1CC/C2=C/c1cccnc1 [Compound 25b, 3-[(Z)-(4-Chloro-2,3-dihydro-1H-indane-1-ylidene)methyl]pyridine Hydrochloride]",30.6 nM,32%
"COc1cccc2c1/C(=C/c1cccnc1)CC2 [Compound 26a, 3-[(E)-(7-Methoxy-2,3-dihydro-1H-indane-1-ylidene)methyl]pyridine Hydrochloride]",26.7 nM,5%
"Fc1ccc2c(c1)CC/C2=C\c1cncnc1 [Compound 28a, 5-[(E)-(5-Fluoro-2,3-dihydro-1H-indane-1-ylidene)methyl]pyrimidine Hydrochloride]",27.4 nM,6%
"Fc1ccc2c(c1)CC/C2=C\c1cccc2cnccc12 [Compound 30a, 5-[(E)-(5-Fluoro-2,3-dihydro-1H-indane-1-ylidene)methyl]isoquinoline Hydrochloride]",58.1 nM,57%
